Laboratory results from patent US20110039721A1, “METHOD FOR PREDICTION ABOUT CARCINOGENICITY OF SUBSTANCE IN RODENT” (Chemicals Evaluation and Research Institute, priority 2007, published 2011).
Like-named read-outs stand apart in the source and are kept apart here.

Key:
[1] = system: mRNA expressed from the genes (A) to (D) in rat liver; experiment: Behavior of genes (mRNA expression level, oligo-DNA microarray) in rat liver after 28-day oral administration; assay type: in vivo
Outline: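 Male F344 SPF rats, 5 weeks old, four per group, dosed by oral gavage once daily for 28 days with test chemical or matched-volume solvent. Liver total RNA profiled on oligo-DNA microarray. Change ≥1.5-fold or ≤1/1.5 versus vehicle counted as significant if its direction matched that seen with other carcinogens.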

[2] = cited from earlier work
liver = settings: cited from earlier work
rodent = settings: cited from earlier work
[3] = gene group (A), Unigene No. Rn.167075
[4] = gene group (C), Unigene No. Rn.120914

O=c1c(O)c(-c2ccc(O)c(O)c2)oc2cc(O)cc(O)c12 [TS037, Quercetin]
Behavior of gene caused by administration of chemical substance, Gene No. 4846 ([1]; gene group (A), Unigene No. Rn.144554): − | Behavior of gene caused by administration of chemical substance, Gene No. 2026 [1, 3]: − | Behavior of gene caused by administration of chemical substance, Gene No. 4218 [1, 3]: − | Behavior of gene caused by administration of chemical substance, Gene No. 6182 ([1]; gene group (A), Unigene No. Rn.5834): − | Behavior of gene caused by administration of chemical substance, Gene No. 5600 ([1]; gene group (A), Unigene No. Rn.9836): − | Behavior of gene caused by administration of chemical substance, Gene No. 1494 ([1]; gene group (B), Unigene No. Rn.1430): − | Behavior of gene caused by administration of chemical substance, Gene No. 2045 ([1]; gene group (B), Unigene No. Rn.19329): − | Behavior of gene caused by administration of chemical substance, Gene No. 2203 ([1]; gene group (B), Unigene No. Rn.21240): − | Behavior of gene caused by administration of chemical substance, Gene No. 533 ([1]; gene group (C), Unigene No. Rn.106184): − | Behavior of gene caused by administration of chemical substance, Gene No. 725 ([1]; gene group (C), Unigene No. Rn.108075): − | Behavior of gene caused by administration of chemical substance, Gene No. 1163 ([1]; gene group (C), Unigene No. Rn.11766): − | Behavior of gene caused by administration of chemical substance, Gene No. 4973 ([1]; gene group (C), Unigene No. Rn.118529): − | Behavior of gene caused by administration of chemical substance, Gene No. 4095 ([1]; gene group (C), Unigene No. Rn.119024): − | Behavior of gene caused by administration of chemical substance, Gene No. 1334 [1, 4]: − | Behavior of gene caused by administration of chemical substance, Gene No. 6620 [1, 4]: − | Behavior of gene caused by administration of chemical substance, Gene No. 6303 ([1]; gene group (C), Unigene No. Rn.123063): − | Behavior of gene caused by administration of chemical substance, Gene No. 5878 ([1]; gene group (C), Unigene No. Rn.143213): − | Behavior of gene caused by administration of chemical substance, Gene No. 1131 ([1]; gene group (C), Unigene No. Rn.144946): − | Behavior of gene caused by administration of chemical substance, Gene No. 1562 ([1]; gene group (C), Unigene No. Rn.14744): − | Behavior of gene caused by administration of chemical substance, Gene No. 1741 ([1]; gene group (C), Unigene No. Rn.1647): − | Behavior of gene caused by administration of chemical substance, Gene No. 893 ([1]; gene group (C), Unigene No. Rn.164817): − | Behavior of gene caused by administration of chemical substance, Gene No. 6026 ([1]; gene group (C), Unigene No. Rn.167685): − | Behavior of gene caused by administration of chemical substance, Gene No. 154 ([1]; gene group (C), Unigene No. Rn.185941): − | Behavior of gene caused by administration of chemical substance, Gene No. 1993 ([1]; gene group (C), Unigene No. Rn.18728): − | Behavior of gene caused by administration of chemical substance, Gene No. 813 ([1]; gene group (C), Unigene No. Rn.201760): − | Behavior of gene caused by administration of chemical substance, Gene No. 2494 ([1]; gene group (C), Unigene No. Rn.23969): − | Behavior of gene caused by administration of chemical substance, Gene No. 2546 ([1]; gene group (C), Unigene No. Rn.24561): − | Behavior of gene caused by administration of chemical substance, Gene No. 3776 ([1]; gene group (C), Unigene No. Rn.43232): − | Behavior of gene caused by administration of chemical substance, Gene No. 3929 ([1]; gene group (C), Unigene No. Rn.4620): − | Behavior of gene caused by administration of chemical substance, Gene No. 1119 ([1]; gene group (C), Unigene No. Rn.9757): − | Behavior of gene caused by administration of chemical substance, Gene No. 6742 ([1]; gene group (C), Unigene No. Rn.9779): − | Behavior of gene caused by administration of chemical substance, Gene No. 5634 ([1]; gene group (C), Unigene No. Rn.9862): − | Behavior of gene caused by administration of chemical substance, Gene No. 5726 ([1]; gene group (D), Unigene No. Rn.9939): − | Mutagenicity by Ames test ([2]; classification of the substance (M+/M−)): M+ | Liver carcinogenicity (liver; classification of the substance (Cr+/Cr−)): Cr− | Carcinogenicity (rodent; classification of the substance (C+/C−)): C−

C=CCc1ccc(OC)c(OC)c1 [TS086, Methyleugenol]
Behavior of gene caused by administration of chemical substance ([1]; Gene No. 154, Rn.185941, group (C)): − | Behavior of gene caused by administration of chemical substance ([1]; Gene No. 533, Rn.106184, group (C)): + | Behavior of gene caused by administration of chemical substance ([1]; Gene No. 725, Rn.108075, group (C)): − | Behavior of gene caused by administration of chemical substance ([1]; Gene No. 813, Rn.201760, group (C)): − | Behavior of gene caused by administration of chemical substance ([1]; Gene No. 893, Rn.164817, group (C)): − | Behavior of gene caused by administration of chemical substance ([1]; Gene No. 1119, Rn.9757, group (C)): − | Behavior of gene caused by administration of chemical substance ([1]; Gene No. 1131, Rn.144946, group (C)): − | Behavior of gene caused by administration of chemical substance ([1]; Gene No. 1163, Rn.11766, group (C)): − | Behavior of gene caused by administration of chemical substance ([1]; Gene No. 1334, Rn.120914, group (C)): − | Behavior of gene caused by administration of chemical substance ([1]; Gene No. 1494, Rn.1430, group (B)): − | Behavior of gene caused by administration of chemical substance ([1]; Gene No. 1562, Rn.14744, group (C)): − | Behavior of gene caused by administration of chemical substance ([1]; Gene No. 1741, Rn.1647, group (C)): − | Behavior of gene caused by administration of chemical substance ([1]; Gene No. 1993, Rn.18728, group (C)): − | Behavior of gene caused by administration of chemical substance ([1]; Gene No. 2026, Rn.167075, group (A)): − | Behavior of gene caused by administration of chemical substance ([1]; Gene No. 2045, Rn.19329, group (B)): − | Behavior of gene caused by administration of chemical substance ([1]; Gene No. 2203, Rn.21240, group (B)): − | Behavior of gene caused by administration of chemical substance ([1]; Gene No. 2494, Rn.23969, group (C)): − | Behavior of gene caused by administration of chemical substance ([1]; Gene No. 2546, Rn.24561, group (C)): − | Behavior of gene caused by administration of chemical substance ([1]; Gene No. 3776, Rn.43232, group (C)): − | Behavior of gene caused by administration of chemical substance ([1]; Gene No. 3929, Rn.4620, group (C)): − | Behavior of gene caused by administration of chemical substance ([1]; Gene No. 4095, Rn.119024, group (C)): − | Behavior of gene caused by administration of chemical substance ([1]; Gene No. 4218, Rn.167075, group (A)): − | Behavior of gene caused by administration of chemical substance ([1]; Gene No. 4846, Rn.144554, group (A)): + | Behavior of gene caused by administration of chemical substance ([1]; Gene No. 4973, Rn.118529, group (C)): − | Behavior of gene caused by administration of chemical substance ([1]; Gene No. 5600, Rn.9836, group (A)): + | Behavior of gene caused by administration of chemical substance ([1]; Gene No. 5634, Rn.9862, group (C)): − | Behavior of gene caused by administration of chemical substance ([1]; Gene No. 5726, Rn.9939, group (D)): − | Behavior of gene caused by administration of chemical substance ([1]; Gene No. 5878, Rn.143213, group (C)): − | Behavior of gene caused by administration of chemical substance ([1]; Gene No. 6026, Rn.167685, group (C)): − | Behavior of gene caused by administration of chemical substance ([1]; Gene No. 6182, Rn.5834, group (A)): + | Behavior of gene caused by administration of chemical substance ([1]; Gene No. 6303, Rn.123063, group (C)): − | Behavior of gene caused by administration of chemical substance ([1]; Gene No. 6620, Rn.120914, group (C)): − | Behavior of gene caused by administration of chemical substance ([1]; Gene No. 6742, Rn.9779, group (C)): − | Mutagenicity by Ames test ([2]; classification M+/M−): M− | Liver carcinogenicity (liver; classification Cr+/Cr−): Cr+ | Carcinogenicity (rodent; classification C+/C−): C+
